Test results: patent US11369631B1, “Oral gelling liquid formulations” (UMM Rainforest Innovations, priority 2019, dated 2022)

Experiment: Rheological analysis of thermal gelation temperature (oscillation temperature sweep, abrupt increase in G′)
Type: physicochemical
Details: for αG, rate of change in gelation temperature as a function of additive composition: 2% w/v HPMC 2910, linear fit TGel=T0−αGx (FIG. 5)
Excerpt: Rheology is the most direct and reliable way to determine the sol-gel transition temperature, as well as characterize the rheological properties of both solution and subsequent gel. As a result, a rheometer was chosen to determine the sol-gel transition temperature of the HPMC solutions disclosed. Rheological properties such as dynamic moduli G′, G″, and complex viscosity η* change when the temperature is in the vicinity of the sol-gel transition. The rheometer is able to measure these properties during heating.
During the routine measurements in these studies, the following procedure was observed: (i) Each HPMC solution was placed on to the bottom Peltier plate of the Discovery Hybrid HR-2 rheometer (TA Instruments, Newcastle, Del., USA) equipped with a Peltier […] temperature system and a 50 mm parallel plate; (ii) Oscillation temperature sweep was performed to determine the effect of temperatures on complex viscosity (η*), storage modulus (G′), and loss modulus (G″) at angular frequency of 1 rad/s and stress applied was 0.4 Pa; (iii) In this study samples were heated in the range of 10-80° C. at a rate of 1° C./min. A thin layer of low-viscosity silicon oil was placed around the sample to prevent dehydration during measurements; (iv) All measurements were repeated in triplicate. The abrupt increase in G′, which is accompanied by a sharp increase in viscosity was considered to be a suitable way to define a thermal gelation temperature.
Statistical differences in the thermal gelation temperature of different hypromellose formulations containing different halide salt concentrations were determined using a one-way ANOVA test using Microsoft Excel Analysis Toolpak (Microsoft Inc., Redmond, Wash.). P values of <0.05 were considered statistically significant.

| SMILES | αG, rate of change in gelation temperature as a function of additive composition | factor by which αG-NaF is greater than αG-NaCl (2% w/v HPMC 2910) [times] |
| --- | --- | --- |
| [Cl-].[Na+] [NaCl, sodium chloride] | ~4.0 | – |
| [F-].[Na+] [NaF, Sodium fluoride] | ~14.5 | ~3.6 |
